Measured values reported in patent US20220071952A1, “METHODS OF TREATING AND PREVENTING HEPATOTOXICITY” (Natreon, Inc., priority 2020, published 2022).
Where “and” joins values, the source holds several entries; their conditions need not be identical. Identical values can stand only once.

How the values were obtained:
[1] = test system: paracetamol-induced hepatotoxicity in mice; test: Paracetamol-induced hepatotoxicity in mice, serum biochemical parameters (Example I); format: in vivo, Swiss albino mice; settings: for ALP / ALT / AST / Total Bilirubin / Total Protein / Triglyceride: 10 mg/kg p.o. + paracetamol 200 mg/kg p.o., 7 days, serum, mean ± SD, n=6
Source text: 3-OH-DBP (Natreon, Inc., New Brunswick, N.J., synthesized to 99% purity w/w) was in the form of a white free flowing powder. 3,8-(OH)2-DBP (Natreon, Inc., New Brunswick, N.J., synthesized to 99% purity w/w) was in the form of a pale green free flowing powder. Paracetamol (acetaminophen) was in the form of a white solid tablet.
(§1) Swiss albino mice of both sexes, weighing approximately 25-30 g, were obtained from National Research Institute of Ayurveda for Drug Development (Govt. of India), Kolkata, and were housed in polypropylene cages at 22±3° C., relative air humidity of 45 to 55%, with 12.00 hr light and dark cycle (lighting on from 6:00 AM to 6:00 PM). Mice were provided standard pellet chow (carbohydrate 65.5%, protein 17.6%, fat 6.6%) and distilled water ad libitum. The mice were acclimatized for one week in the above laboratory conditions, before being used in this experiment. All experiments were conducted between 10.00 hr and 14.00 hr. Principles of laboratory animal care (NIH publication no. 85-23, revised 1985) were followed.
The animals were randomly assigned into four groups of six animals each, as set out in Table 1. […] After 1 hr of last treatment, blood samples were collected and serum was separated.

[2] = test system: CCl4-induced hepatotoxicity in mice; test: Carbon tetrachloride (CCl4)-induced hepatotoxicity in mice, serum biochemical parameters (Example II); format: in vivo, Swiss albino mice; settings: for ALT / AST / MDA / Total Bilirubin / Total Protein: 10 mg/kg p.o. 7 days + CCl4 (30%) 1 ml/kg i.p., serum, mean ± SD, n=6
Procedure: as §1, with “PM) and” for “PM). Mice”, “the” for “the above”, “conditions” for “conditions,”, “the” for “this”, “animals” for “animal”

[3] = test system: CCl4-induced hepatotoxicity in mice; test: Synergistic hepatoprotective activity of DBPs against CCl4-induced hepatotoxicity (Example IV); settings: for ACP / ALP / ALT / AST / Total Protein: CCl4 1 ml/kg, mean ± SEM, n=4
[4] = female mice, doses 3-OH-DBP 2, 3,8-(OH)2-DBP 10, 1:5 combination 12 mg/kg b.w.
[5] = female mice, doses 3-OH-DBP 10, 3,8-(OH)2-DBP 50, 1:5 combination 60 mg/kg b.w.
[6] = male mice, doses 3-OH-DBP 2, 3,8-(OH)2-DBP 10, 1:5 combination 12 mg/kg b.w.
[7] = male mice, doses 3-OH-DBP 10, 3,8-(OH)2-DBP 50, 1:5 combination 60 mg/kg b.w.

## O=c1oc2cc(O)ccc2c2ccc(O)cc12 [3,8-(OH)2-DBP, 3,8-dihydroxy-dibenzo-alpha-pyrone]
[1]; 10 mg/kg body weight, male (Table 2) and female (Table 3) mice
  effect on paracetamol-induced hepatotoxicity (ALT, AST, triglyceride, bilirubin vs paracetamol group): significantly attenuated and reversed the paracetamol-induced hepatotoxicity
[1]; female mice, 10 mg/kg orally for 7 days, paracetamol 200 mg/kg
  hepatoprotective activity against paracetamol, comparison of both test compounds: almost the same hepatoprotective activity
[1]; female mice
  ALP: 105.1 ± 12.40 IU/L
  ALT: 76.91 ± 16.87 IU/L
  AST: 51.76 IU/L and 51.76 ± 3.72 IU/L
  Total Bilirubin: 0.58 ± 0.30 mg/dL
  Total Protein: 5.41 ± 0.49 mg/dL
  Triglyceride: 45.13 ± 0.80 mg/dL
[1]; male mice
  ALP: 107.1 ± 19.11 IU/L
  ALT: 95.97 ± 29.52 IU/L
  AST: 85.75 ± 11.59 IU/L
  Total Bilirubin: 0.48 ± 0.14 mg/dL
  Total Protein: 5530 ± 230 mg/dL
  Triglyceride: 57.06 ± 0.90 mg/dL
[2]; 10 mg/kg p.o., mice
  effect on CCl4-induced hepatotoxicity (ALT, AST, bilirubin, total protein vs CCl4 group): significantly attenuated and reversed the CCl4-induced hepatotoxicity
  effect on CCl4-induced lipid peroxidation (MDA): significantly lowered CCl4-induced lipid peroxidation
[2]; female mice
  ALT: 60.99 ± 13.49 IU/L
  AST: 12.95 ± 2.46 IU/L
  MDA: 6.53 ± 0.66 nmol/mL
  Total Bilirubin: 0.60 ± 0.18 mg/dL
  Total Protein: 4.02 ± 0.3 g/dL
[2]; females, 10 mg/kg p.o.
  hepatoprotective activity against carbon tetrachloride-induced liver damage, in comparison to 3-OH-DBP: better hepatoprotective activity
[2]; male mice
  ALT: 64.78 ± 4.65 IU/L
  AST: 13.04 ± 3.74 IU/L
  Total Bilirubin: 0.48 ± 0.14 mg/dL
  Total Protein: 0.00412 ± 0.00086 g/dL
[2]; male mice, 10 mg/kg
  MDA: 6.59 nmol/mL and 6.59 ± 0.82 nmol/mL
[2]; males and females, 10 mg/kg p.o.
  hepatoprotective activity against carbon tetrachloride-induced liver damage: significant hepatoprotective activity
[3]; CCl4-induced hepatotoxicity, male and female mice
  hepatoprotective activity (conclusion, Tables 19 and 20): hepatoprotective activity in a dose dependent manner
[3]; [4]
  ACP: 48 ± 4 (c) U/L
  ALP: 89 ± 5.1 (c) IU/L
  ALT: 68 ± 6.5 (c) IU/L
  AST: 57 ± 8 (c) ^ IU/L
  Total Protein: 4.9 ± 0.21 g/dL
  ACP, difference in values from CCl4 treated mice: B = (a-c = 32) U/L
  ALP, difference in values from CCl4 treated mice: B = (a-c = 1) IU/L
  ALT, difference in values from CCl4 treated mice: B = (a-c = 19) IU/L
  AST, difference in values from CCl4 treated mice: B = (a-c = 48) IU/L
[3]; [5]
  ACP: 28 ± 5.1 (f) U/L
  ALP: 68 ± 8 (f) ^ IU/L
  ALT: 62 ± 3.6 (f) IU/L
  AST: 41 ± 14^###(f) IU/L
  Total Protein: 6.6 ± 0.16 g/dL
  ACP, difference in values from CCl4 treated mice: E = (a-f = 52) U/L
  ALP, difference in values from CCl4 treated mice: E = (a-f = 22) IU/L
  ALT, difference in values from CCl4 treated mice: E = (a-f = 25) IU/L
  AST, difference in values from CCl4 treated mice: E = (a-f = 64) IU/L
[3]; [6]
  ACP: 48 ± 7.2***,#(c) U/L
  ALP: 89 ± 5.1*,,#(c) IU/L
  ALT: 68 ± 5.1 (c) IU/L
  AST: 70 ± 4.4##(c) IU/L
  Total Protein: 6.3 ± 0.36 g/dL
  ACP, difference in values from CCl4 treated mice: B = (a-c = 38) U/L
  ALP, difference in values from CCl4 treated mice: B = (a-c = 53) IU/L
  ALT, difference in values from CCl4 treated mice: B = (a-c = 12) IU/L
  AST, difference in values from CCl4 treated mice: B = (a-c = 33) IU/L
[3]; [7]
  ACP: 46 ± 2.5 (f)^ U/L
  ALP: 68 ± 8##(f) ^ IU/L
  ALT: 60 ± 2.5 (f) IU/L
  AST: 58 ± 1.9###(f)^ IU/L
  Total Protein: 6 ± 0.40 g/dL
  ACP, difference in values from CCl4 treated mice: E = (a-f = 20) U/L
  ALP, difference in values from CCl4 treated mice: E = (a-f = 74) IU/L
  ALT, difference in values from CCl4 treated mice: E = (a-f = 20) IU/L
  AST, difference in values from CCl4 treated mice: E = (a-f = 45) IU/L
[3]; male mice, CCl4 study of Example IV
  Relative liver weight: significantly increased
